Laboratory results published in patent publication US20240239767A1 (AstraZeneca AB, priority 2022, published 2024).

Tests used:
[1] = molecular target: GSK3b (Glycogen synthase kinase-3 beta) (Homo sapiens, UniProt P49841); assay: Assay 6 - GSK3b assay (ThermoFisher, FRET Z-Lyte); format: biochemical; settings: geometric mean; ATP Conc: 10.000 μM; read-out: Assay 6 (GSK3B FRET-Z-Lyte CR) GMean IC50 (μM) ATP Conc: 10.000
Description: This assay measures the activity of the compounds at GSK3b (Glycogen synthase kinase-3 beta).
The test compounds were screened in 1% DMSO (final) in the well. For 10-point titrations, 3-fold serial dilutions are conducted from the starting concentration of 10 μM.
• Bar-coded Corning, low volume NBS, black 384-well plate • 1. 2.5 μL—4× Test Compound or 100 nL 100× plus 2.4 μL kinase buffer • 2. 5 μL—2× Peptide/Kinase Mixture • 3. 2.5 μL—4× ATP Solution • 4. 30-second plate shake • 5. 60-minute Kinase Reaction incubation at room temperature • 6. 5 μL—Development Reagent Solution • 7. 30-second plate shake • 8. 60-minute Development Reaction incubation at room temperature • 9. Read on fluorescence plate reader and analyse the data
In step 2, the 2× GSK3β (GSK3 beta)/Ser/Thr (Glycogen synthase kinase-3 beta/Serine/Threonine) 09 mixture is prepared in 50 mM HEPES (4-(2-hydroxyethyl)-1-piperazineethanesulfonic acid) pH 7.5, 0.01% BRIJ-35, 10 mM MgCl2, 1 mM EGTA (egtazic acid). The final 10 μL Kinase Reaction consists of 0.22-0.92 ng GSK3β (GSK3 beta) and 2 μM Ser/Thr 09 in 50 mM HEPES pH 7.5, 0.01% BRIJ-35, 10 mM MgCl2, 1 mM EGTA.
In step 3 the ATP Solution is diluted to a 4× working concentration in Kinase Buffer (50 mM HEPES pH 7.5, 0.01% BRIJ-35, 10 mM MgCl2, 1 mM EGTA).
In Step 6 the Development Reagent is diluted 1:512 in Development Buffer (10× Novel PKC Lipid Mix: 2 mg/mL Phosphatidyl Serine, 0.2 mg/mL DAG in 20 mM HEPES, pH 7.4, 0.3% CHAPS).
SelectScreen® Kinase Profiling Service uses XLfit from IDBS. The dose response curve is curve fit to model number 205 (sigmoidal dose-response model).

[2] = molecular target: T1, potassium ion channel hERG (human Ether-á-go-go-Related Gene) (Homo sapiens, UniProt Q12809); assay: Assay 5 - hERG assay (SyncroPatch 384PE patch clamp, CHO cells); format: cell-based; settings: geometric mean, CHO cells over-expressing hERG, read-out: Assay 5 (hERG Hu CHO IF EPh CR-Syncro) GMean IC50
T1 construct: expressed in transfected cells; host or cells: Chinese hamster ovary K1 (CHO)
Description: Assay 5—hERG Assay (Human Ether-á-go-go-Related Gene)
This assay (human Ether-á-go-go-Related Gene) measures activity of the compounds at the potassium ion channel hERG (human Ether-á-go-go-Related Gene).
Experiments were performed on the SyncroPatch 384PE high throughput patch clamp platform at room temperature and medium resistance chips with 4 patch holes per site. Chinese hamster ovary K1 (CHO) cell lines over-expressing the ion channel of choice (hERG) were used in assay-ready format and kept in liquid nitrogen or were used from live culture. Cells were either thawed and diluted in HBSS or were detached from flasks and resuspended in HBSS. HBSS comprised 140 mM NaCl, 4 mM KCl, 10 mM HEPES and 5 mM Glucose (pH 7.4). The internal patch clamp solution was KF 120 mM, KCl 20 mM, HEPES 10 mM, EGTA 10 mM, and 25 μM Escin (pH 7.2). After the sealing process was complete, the external solution was exchanged for external patch clamp solution comprising NaCl 80 mM, KCl 4 mM, HEPES 10 mM, CaCl2 2 mM, MgCl2 1 mM, glucose 5 mM, and NMDG 60 mM (pH 7.4). All solutions were stored at room temperature, except Escin, which was stored at 4° C. All test compounds were dispensed in greiner-bio 384 well plates and tested in a 6 point cumulative assay (final DMSO concentration 0.33%). Only wells that passed previously agreed acceptance criteria for this platform were used in this analysis (30 MegaOhm seal resistance, Z prime>0.4 and current size>0.2 nA).

PCSK9 = PCSK9 (Homo sapiens, UniProt Q8NBP7, G670E/V474I); assay: biochemical
Chain of PCSK9 (Q8NBP7 with tags, fused parts or gaps V474I/G670E): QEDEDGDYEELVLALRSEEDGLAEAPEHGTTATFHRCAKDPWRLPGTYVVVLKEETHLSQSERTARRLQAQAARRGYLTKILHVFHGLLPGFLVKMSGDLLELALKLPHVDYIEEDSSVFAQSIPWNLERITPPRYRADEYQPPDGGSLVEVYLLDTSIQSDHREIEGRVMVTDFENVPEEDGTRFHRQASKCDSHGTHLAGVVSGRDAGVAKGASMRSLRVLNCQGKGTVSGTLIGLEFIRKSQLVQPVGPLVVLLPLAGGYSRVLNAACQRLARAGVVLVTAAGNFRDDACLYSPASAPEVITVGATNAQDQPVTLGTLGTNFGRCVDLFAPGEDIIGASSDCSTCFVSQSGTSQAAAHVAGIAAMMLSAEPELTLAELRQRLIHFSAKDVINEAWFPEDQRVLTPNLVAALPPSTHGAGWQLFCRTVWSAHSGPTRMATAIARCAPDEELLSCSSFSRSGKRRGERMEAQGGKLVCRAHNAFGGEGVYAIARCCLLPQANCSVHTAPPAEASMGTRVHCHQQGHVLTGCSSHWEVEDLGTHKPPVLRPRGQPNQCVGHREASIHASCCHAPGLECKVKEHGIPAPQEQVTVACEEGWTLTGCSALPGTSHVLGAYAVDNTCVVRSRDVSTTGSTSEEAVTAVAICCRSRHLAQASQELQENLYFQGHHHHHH

T1 sequence (Q12809 whole entry): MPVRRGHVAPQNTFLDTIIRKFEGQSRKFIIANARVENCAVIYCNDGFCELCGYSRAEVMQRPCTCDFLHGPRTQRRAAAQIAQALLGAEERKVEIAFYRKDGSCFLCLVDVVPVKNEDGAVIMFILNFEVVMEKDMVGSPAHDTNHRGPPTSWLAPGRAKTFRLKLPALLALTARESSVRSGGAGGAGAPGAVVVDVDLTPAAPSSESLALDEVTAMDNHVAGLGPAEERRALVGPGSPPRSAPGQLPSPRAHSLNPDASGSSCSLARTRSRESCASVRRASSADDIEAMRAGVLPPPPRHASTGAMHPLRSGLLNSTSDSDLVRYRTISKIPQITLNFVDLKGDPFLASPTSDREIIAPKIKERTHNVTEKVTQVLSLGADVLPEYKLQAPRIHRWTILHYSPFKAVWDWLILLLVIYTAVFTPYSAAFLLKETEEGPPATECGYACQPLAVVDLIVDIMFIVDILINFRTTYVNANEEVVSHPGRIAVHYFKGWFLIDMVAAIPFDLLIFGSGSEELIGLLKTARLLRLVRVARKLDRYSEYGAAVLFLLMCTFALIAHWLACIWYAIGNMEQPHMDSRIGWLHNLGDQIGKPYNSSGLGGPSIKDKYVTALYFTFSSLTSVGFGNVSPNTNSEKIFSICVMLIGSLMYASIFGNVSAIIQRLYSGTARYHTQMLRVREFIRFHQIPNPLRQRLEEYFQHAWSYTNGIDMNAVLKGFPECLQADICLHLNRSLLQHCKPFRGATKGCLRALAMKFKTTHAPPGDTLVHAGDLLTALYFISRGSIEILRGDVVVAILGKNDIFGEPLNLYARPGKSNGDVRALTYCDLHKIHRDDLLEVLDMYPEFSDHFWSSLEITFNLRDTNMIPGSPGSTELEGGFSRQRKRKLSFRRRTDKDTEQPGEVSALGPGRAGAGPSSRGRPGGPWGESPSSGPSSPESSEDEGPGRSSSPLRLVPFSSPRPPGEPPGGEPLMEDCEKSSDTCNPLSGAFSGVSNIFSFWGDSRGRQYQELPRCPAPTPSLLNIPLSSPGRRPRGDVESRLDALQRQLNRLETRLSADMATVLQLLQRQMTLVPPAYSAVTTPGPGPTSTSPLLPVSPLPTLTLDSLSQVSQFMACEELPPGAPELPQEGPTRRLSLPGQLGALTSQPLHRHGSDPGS
Chain of GSK3b (Glycogen synthase kinase-3 beta) (P49841 whole entry): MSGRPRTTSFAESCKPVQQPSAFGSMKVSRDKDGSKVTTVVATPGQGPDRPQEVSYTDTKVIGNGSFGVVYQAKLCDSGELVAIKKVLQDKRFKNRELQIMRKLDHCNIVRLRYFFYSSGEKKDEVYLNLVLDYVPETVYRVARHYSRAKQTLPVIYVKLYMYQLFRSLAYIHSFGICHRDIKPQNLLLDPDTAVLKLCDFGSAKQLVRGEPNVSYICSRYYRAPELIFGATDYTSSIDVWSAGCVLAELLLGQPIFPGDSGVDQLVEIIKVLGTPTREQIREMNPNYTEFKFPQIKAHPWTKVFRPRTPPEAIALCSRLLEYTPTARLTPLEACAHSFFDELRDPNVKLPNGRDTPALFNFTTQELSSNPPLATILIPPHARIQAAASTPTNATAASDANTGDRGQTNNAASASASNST

| Compound | IC50 [1] [µM] | IC50 [2] [µM] | IC50 (PCSK9) [µM] |
| --- | --- | --- | --- |
| O=c1ccccn1-c1ccc(N[C@H]2CC[C@H](Nc3nc4cc(CO)cnc4s3)C2)nc1 [Compound 88] | > 10 | > 40.1 | 0.0099 |
| O=c1ccccn1-c1ccc(N[C@H]2CC[C@H](Nc3nc4ncccc4o3)C2)nc1 [Compound 89, 6′-(((1S,3S)-3-(Oxazolo[4,5-b]pyridin-2-ylamino)cyclopentyl)amino)-2H-[1,3′-bipyridin]-2-one] | > 10 | > 40.1 | 0.259 |
| O=c1ccccn1-c1ccc(N[C@H]2CC[C@H](Nc3nc4ccccc4o3)C2)nc1 [Example 1, 6′-(((1S,3S)-3-(Benzo[d]oxazol-2-ylamino)cyclopentyl)amino)-2H-[1,3′-bipyridin]-2-one] | > 10 | > 40 | 0.0343 |
| Cc1ccc2nc(N[C@H]3CC[C@H](Nc4ccc(-n5ccccc5=O)cn4)C3)oc2c1 [Example 2, 6′-(((1S,3S)-3-((6-Methylbenzo[d]oxazol-2-yl)amino)cyclopentyl)amino)-2H-[1,3′-bipyridin]-2-one] | > 10 | 13.2 | 0.0118 |
| O=c1ccccn1-c1ccc(N[C@H]2CC[C@H](Nc3nc4ccc(Br)cc4o3)C2)nc1 [Example 3, 6′-(((1S,3S)-3-((6-Bromobenzo[d]oxazol-2-yl)amino)cyclopentyl)amino)-2H-[1,3′-bipyridin]-2-one] | > 10 | 4.2 | 0.0082 |
| O=c1ccccn1-c1ccc(N[C@H]2CC[C@H](Nc3nc4ccc(Br)cc4s3)C2)nc1 [Example 6, 6′-(((1S,3S)-3-((6-Bromobenzo[d]thiazol-2-yl)amino)cyclopentyl)amino)-2H-[1,3′-bipyridin]-2-one] | > 10 | 2.64 | 2.73 |
| O=c1ccccn1-c1ccc(N[C@H]2CC[C@H](Nc3nc4ccccc4s3)C2)nc1 [Example 7, 6′-(((1S,3S)-3-(Benzo[d]thiazol-2-ylamino)cyclopentyl)amino)-2H-[1,3′-bipyridin]-2-one] | > 10 | 12.6 | 0.324 |
| O=c1ccc2ccccc2n1-c1ccc(N[C@H]2CC[C@H](Nc3nc4cccnc4[nH]3)C2)nc1 [Example 33, 1-(6-(((1S,3S)-3-((3H-Imidazo[4,5-b]pyridin-2-yl)amino)cyclopentyl)amino)pyridin-3-yl)quinolin-2(1H)-one] | > 10 | > 40 |  |
| Cn1c(=O)n(-c2ccc(N[C@H]3CC[C@H](Nc4nc5cccnc5[nH]4)C3)nc2)c2ncccc21 [Example 45, 3-(6-(((1S,3S)-3-((3H-Imidazo[4,5-b]pyridin-2-yl)amino)cyclopentyl)amino)pyridin-3-yl)-1-methyl-1,3-dihydro-2H-imidazo[4,5-b]pyridin-2-one] | > 10 | > 40 |  |
| CP(C)(=O)c1cnc2[nH]c(N[C@H]3CC[C@H](Nc4ccc(-n5ccccc5=O)cn4)C3)nc2c1 [Example 58, 6′-(((1S,3S)-3-((6-(Dimethylphosphoryl)-3H-imidazo[4,5-b]pyridin-2-yl)amino)cyclopentyl)amino)-2H-[1,3′-bipyridin]-2-one] |  | > 40 | 0.22 |
| Fc1cccc(F)c1-c1ccc(N[C@H]2CC[C@H](Nc3nc4cccnc4[nH]3)C2)nc1 [Example 68, (1S,3S)—N^1-(5-(2,6-Difluorophenyl)pyridin-2-yl)-N^3-(3H-imidazo[4,5-b]pyridin-2-yl)cyclopentane-1,3-diamine] | > 10 | 6.55 |  |
| Fc1cccc(OC(F)(F)F)c1-c1ccc(N[C@H]2CC[C@H](Nc3nc4cccnc4[nH]3)C2)nc1 [Example 70, (1S,3S)—N^1-(5-(2-Fluoro-6-(trifluoromethoxy)phenyl)pyridin-2-yl)-N^3-(3H-imidazo[4,5-b]pyridin-2-yl)cyclopentane-1,3-diamine] | > 10 |  | 0.0244 |
| O=c1ccccn1-c1ccc(N[C@H]2CC[C@H](Nc3nc4ccc(OC(F)F)cc4o3)C2)nc1 [Example 85, 6′-(((1S,3S)-3-((6-(Difluoromethoxy)benzo[d]oxazol-2-yl)amino)cyclopentyl)amino)-2H-[1,3′-bipyridin]-2-one] |  |  | 0.0146 |
